Drawing on patent US11685747B2, “Compounds that inhibit MCL-1 protein” (AMGEN INC., priority 2014, dated 2023), this text covers IC50 for 19 compounds.

The target of assay [1] is T1, Mcl-1/Bak protein-protein interactions (Homo sapiens, UniProt Q07820).
T1 construct: expressed in transfected cells; host or cells: HEK 293 M cells, transient transfection
The experiment in a line: Cell-based split luciferase complementation assay. Particulars: HEK 293 M cells, serum-free, 4 h. The protocol:
Cell-Based Assay (Split Luciferase)
A split luciferase complementation assay was developed to determine the inhibition of Mcl-1/Bak protein-protein interactions in cells. […] Transient transfection was performed using Lipofectamine® LTX/Plus™ reagent (Life Technologies, Grand Island, N.Y.). 24 h after transfection, cells were collected using non-enzyme based cell dissociation buffer StemPro® Accutase® (Life Technologies), and resuspended in serum-free Opti-MEM® (Life Technologies). Cells were then seeded into assay plates with serially diluted test compounds in 0.3% DMSO at density of a 5000 cells/well. Cells were then incubated for 4 h at 37° C. in a cell culture incubator supplement with 5% CO2. Test plates were equilibrated to room temperate for 30 min before addition of 30 μL Steady-Glo® Luciferase assay reagent (Promega, Madison, Wis.) into each test well. Luminescence was determined using an EnVision® Multilabel plate reader 25 min after the addition of detection reagent. IC50 values were then calculated with Xlfit using a logistical 4-parameter fit model in GraphPad Prism (GraphPad Software, San Diego, Calif.) or in Genedata Screener® (Genedata, Basel, Switzerland).

The target in a further assay is T2, recombinant human Mcl-1 (Homo sapiens, UniProt Q07820).
T2 construct: C-terminally 6×His tagged Mcl-1 containing residues 171-327; made in house
The experiment in a line: Cell free Mcl-1:Bim affinity assay (Mcl-1 HTRF, TR-FRET). It is filed as binding. The following applies: inhibition of Mcl-1/Bim interaction. How it is done: Cell Free Mcl-1:Bim Affinity Assay (Mcl-1 HTRF)
The inhibition of the Mcl-1/Bim interaction was measured using a time-resolved fluorescence resonance energy transfer (TR-FRET) assay. […] A biotinylated peptide derived from human Bim (residues 51-76) was purchased from CPC Scientific (San Jose, Calif.). The TR-FRET assay was conducted in a 384-well white OptiPlate™ (PerkinElmer, Waltham, Mass.) in a total volume of 40 μL. […] The reaction plates were further incubated overnight and then were read on an Envision® multimode reader (PerkinElmer). […] The IC50 values of test compounds were determined from duplicate data by analyzing competition curves using a four-parameter sigmoidal model in GraphPad Prism (GraphPad Software, San Diego, Calif.) or in Genedata Screener® (Genedata, Basel, Switzerland).

A further assay deals with OPM-2. The experiment in a line: Cell viability assay (OPM-2 10 FBS, CellTiter-Glo). The following applies: OPM-2 cells. It is filed as cell-based, human. How it is done:
Cell Viability Assay (OPM-2 10 FBS)
Cells were seeded into 384-well plates at 3000 cells/well density in complete growth medium containing 10% FBS, and incubated for 16 h with serially diluted test compounds in a 37° C. incubator with 5% CO2. Cell viability was tested using CellTiter-Glo® assay (Promega, Madison, Wis.) according to the manufacturer recommendations. Luminescence was determined using an EnVision® Multilabel plate reader 25 min after the addition of detection reagent. IC50 values were then calculated with Xlfit using a logistical 4-parameter fit model in GraphPad Prism (GraphPad Software, San Diego, Calif.) or in Genedata Screener® (Genedata, Basel, Switzerland).
A general note: ATP-based viability assays read luminescence as a measure of living cells.

Usually IC50 stands for the concentration that inhibits the measured activity by half.

T2 sequence (Q07820 171-327): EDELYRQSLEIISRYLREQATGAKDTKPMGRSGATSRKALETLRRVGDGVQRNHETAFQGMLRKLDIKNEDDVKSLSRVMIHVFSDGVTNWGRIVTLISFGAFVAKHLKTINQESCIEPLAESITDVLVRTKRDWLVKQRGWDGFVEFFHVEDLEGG
T1 sequence (Q07820 whole entry): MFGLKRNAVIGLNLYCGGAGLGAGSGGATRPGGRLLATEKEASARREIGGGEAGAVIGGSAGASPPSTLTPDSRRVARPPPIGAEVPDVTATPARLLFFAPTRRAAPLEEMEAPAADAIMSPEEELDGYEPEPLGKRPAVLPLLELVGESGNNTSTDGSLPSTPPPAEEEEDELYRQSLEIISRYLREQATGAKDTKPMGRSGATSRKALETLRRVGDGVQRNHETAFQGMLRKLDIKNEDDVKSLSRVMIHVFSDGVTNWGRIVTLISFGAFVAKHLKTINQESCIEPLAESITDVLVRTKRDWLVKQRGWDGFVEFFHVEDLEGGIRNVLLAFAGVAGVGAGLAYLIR

Regarding `COCCO[C@H]1/C=C/C[C@H](C)[C@@H](C)S(=O)(=O)NC(=O)c2ccc3c(c2)N(C[C@@H]2CC[C@H]21)C[C@@]1(CCCc2cc(Cl)ccc21)CO3` [Example 74, (1S,3′R,6′R,7′S,8′E,11′S,12′R)-6-Chloro-7′-(2-Methoxyethoxy)-11′,12′-Dimethyl-3,4-Dihydro-2H,15′H-Spiro[Naphthalene-1,22′-[20]Oxa[13]Thia[1,14]Diazatetracyclo[14.7.2.0^3,6.0^19,24]Pentacosa[8,16,18,24]Tetraen]-15′-One-13′, 13′-Dioxide], the half-maximal inhibitory concentration (IC50) in assay [1] amounted to 273 nM; on recombinant human Mcl-1 it was 2.23 nM; with OPM-2 (Homo sapiens, OPM-2, 16 h), 1740 nM.
On to `CC(C)C[C@@H]1[C@@H](C)C/C=C/[C@H](O)[C@@H]2CC[C@H]2CN2C[C@@]3(CCCc4cc(Cl)ccc43)COc3ccc(cc32)C(=O)NS1(=O)=O` (single isomer, unassigned) [Example 66], for which the 50% inhibitory concentration (IC50) in assay [1] came out at 224 nM; on recombinant human Mcl-1 it was 2.12 nM; with OPM-2 (16 h) it was 2330 nM.
Regarding `CC[C@@H]1CC/C=C/[C@H](OCCOC)[C@@H]2CC[C@H]2CN2C[C@@]3(CCCc4cc(Cl)ccc43)COc3ccc(cc32)C(=O)NS1(=O)=O` [Example 75, (1S,3′R,6′R,7′S,8′E,12′R)-6-Chloro-12′-Ethyl-7′-(2-Methoxyethoxy)-3,4-Dihydro-2H,15′H-Spiro[Naphthalene-1,22′-[20]Oxa[13]Thia[1,14]Diazatetracyclo[14.7.2.0^3,6.0^19,24]Pentacosa[8,16,18,24]Tetraen]-15′-One 13′,13′-Dioxide], the concentration for half-maximal inhibition (IC50) in assay [1] was determined as 159 nM; at recombinant human Mcl-1, 2.83 nM; in the assay with OPM-2 (Homo sapiens, OPM-2, 16 h), 2560 nM.
The like results for `CO[C@H]1/C=C/C[C@@H](C)[C@@H](C(C)C)S(=O)(=O)NC(=O)c2ccc3c(c2)N(C[C@@H]2CC[C@H]21)C[C@@]1(CCCc2cc(Cl)ccc21)CO3` [Example 53, (1S,3′R,6′R,7′S,8′E,11′R,12′R)-6-Chloro-7′-Methoxy-11′-Methyl-12′-(1-Methylethyl)-3,4-Dihydro-2H,15′H-Spiro[Naphthalene-1,22′-[20]Oxa[13]Thia[1,14]Diazatetracyclo[14.7.2.0^3,6.0^19,24]Pentacosa[8,16,18,24]Tetraen]-15′-One 13′,13′-Dioxide] were, in that order, 51.4 nM, 1.39 nM and 328 nM.
On to `C[C@H]1C/C=C/[C@H](O)[C@@H]2CC[C@H]2CN2C[C@@]3(CCCc4cc(Cl)ccc43)COc3ccc(cc32)C(=O)NS(=O)(=O)[C@@H]1C1CC1` (single isomer, unassigned) [Example 46], for which the 50% inhibitory concentration (IC50) in assay [1] stood at 78.3 nM; on recombinant human Mcl-1 it was 0.728 nM; in the assay on OPM-2 (16 h), 334 nM.
In the case of `CC[C@H]1CC/C=C/[C@H](O)[C@@H]2CC[C@H]2CN2C[C@@]3(CCCc4cc(Cl)ccc43)COc3ccc(cc32)C(=O)NS1(=O)=O` (single isomer, unassigned) [Example 19], the concentration for half-maximal inhibition (IC50) in the assay with OPM-2 (Homo sapiens, OPM-2, 16 h) was determined as 3990 nM.
Turning to `CC[C@H]1CCCC[C@H](O)[C@@H]2CC[C@H]2CN2C[C@@]3(CCCc4cc(Cl)ccc43)COc3ccc(cc32)C(=O)NS1(=O)=O` [Example 23, (1S,3′R,6′R,7′S,12′S)-6-Chloro-12′-Ethyl-7′-Hydroxy-3,4-Dihydro-2H,15′H-Spiro[Naphthalene-1,22′-[20]Oxa[13]Thia[1,14]Diazatetracyclo[14.7.2.0^3,6.0^19,24]Pentacos A[16,18,24]Trien]-15′-One 13′,13′-Dioxide], the IC50 was found to be 372 nM in assay [1] and 3.68 nM on recombinant human Mcl-1.
On to `C[C@H]1C/C=C/[C@H](O)[C@@H]2CC[C@H]2CN2C[C@@]3(CCCc4cc(Cl)ccc43)COc3ccc(cc32)C(=O)NS(=O)(=O)C1` (single isomer, unassigned) [Example 29], for which the concentration for half-maximal inhibition (IC50) is 458 nM in assay [1], 9.44 nM on recombinant human Mcl-1 and 5580 nM in the assay with OPM-2 (16 h).
`O=C1NS(=O)(=O)CCC/C=C/[C@H](O)[C@@H]2CC[C@H]2CN2C[C@@]3(CCCc4cc(Cl)ccc43)COc3ccc1cc32` [Example 8, (1S,3′R,6′R,7′S,8′E)-6-Chloro-7′-Hydroxy-3,4-Dihydro-2H,15′H-Spiro[Naphthalene-1,22′-[20]Oxa[13]Thia[1,14]Diazatetracyclo[14.7.2.0^3,6.0^19,24]Pentacos A[8,16,18,24]Tetraen]-15′-One 13′,13′-Dioxide]: the half-inhibitory concentration (IC50) in assay [1] was 211 nM; at recombinant human Mcl-1 it was 0.977 nM; in the assay on OPM-2 (Homo sapiens, 16 h), 1680 nM.
For `CC[C@@H]1[C@@H](C)C/C=C/[C@H](OC)[C@@H]2CC[C@H]2CN2C[C@@]3(CCCc4cc(Cl)ccc43)COc3ccc(cc32)C(=O)NS1(=O)=O` [Example 25, (1S,3′R,6′R,7′S,8′E,11′S,12′R)-6-Chloro-12′-Ethyl-7′-Methoxy-11′-Methyl-3,4-Dihydro-2H,15′H-Spiro[Naphthalene-1,22′-[20]Oxa[13]Thia[1,14]Diazatetracyclo[14.7.2.0^3,6.0^19,24]Pentacosa[8,16,18,24]Tetraen]-15′-One 13′,13′-Dioxide], the IC50 in assay [1] amounted to 77.9 nM; on recombinant human Mcl-1 it was 0.542 nM; in the assay on OPM-2 (Homo sapiens, OPM-2, 16 h) it was 404 nM.
Regarding `CC1(C)CCCC[C@H](O)[C@@H]2CC[C@H]2CN2C[C@@]3(CCCc4cc(Cl)ccc43)COc3ccc(cc32)C(=O)NS1(=O)=O` [Example 42], the IC50 in assay [1] was found to be 850 nM; on recombinant human Mcl-1, 7.55 nM.
In turn, `CO[C@H]1/C=C\C[C@H](C)[C@@H](C)S(=O)(=O)NC(=O)c2ccc3c(c2)N(C[C@@H]2CC[C@H]21)C[C@@]1(CCCc2cc(Cl)ccc21)CO3` [Example 5, (1S,3′R,6′R,7′S,8′Z,11′S,12′R)-6-Chloro-7′-Methoxy-11′,12′-Dimethyl-3,4-Dihydro-2H,15′H-Spiro[Naphthalene-1,22′-[20]Oxa[13]Thia[1,14]Diazatetracyclo[14.7.2.0^3,6.0^19,24]Pentacos A[8,16,18,24]Tetraen]-15′-One 13′,13′-Dioxide] displayed an IC50 in the assay with OPM-2 (Homo sapiens, OPM-2, 16 h) of 1140 nM.
On to `CO[C@H]1/C=C/C[C@H](C)[C@@H](C)S(=O)(=O)NC(=O)c2ccc3c(c2)N(C[C@@H]2CC[C@H]21)C[C@@]1(CCCc2cc(Cl)ccc21)CO3` [Example 4, (1S,3′R,6′R,7′S,8′E,11′S,12′R)-6-Chloro-7′-Methoxy-11′,12′-Dimethyl-3,4-Dihydro-2H,15′H-Spiro[Naphthalene-1,22′-[20]Oxa[13]Thia[1,14]Diazatetracyclo[14.7.2.0^3,6.0^19,24]Pentacos A[8,16,18,24]Tetraen]-15′-One-13′, 13′-Dioxide], for which, in the assay with OPM-2 (Homo sapiens, 16 h), the half-inhibitory concentration (IC50) worked out at 236 nM.
In the case of `C[C@H]1CCC[C@H](O)[C@@H]2CC[C@H]2CN2C[C@@]3(CCCc4cc(Cl)ccc43)COc3ccc(cc32)C(=O)NS(=O)(=O)C1` (single isomer, unassigned) [Example 38], the IC50 in assay [1] came to 1040 nM.
In the assay on OPM-2 (Homo sapiens, OPM-2, 16 h), `CC[C@@H]1CC/C=C\[C@H](O)[C@@H]2CC[C@H]2CN2C[C@@]3(CCCc4cc(Cl)ccc43)COc3ccc(cc32)C(=O)NS1(=O)=O` (single isomer, unassigned) [Example 18] yielded an IC50 of 694 nM.
Regarding `C[C@@H]1CCC[C@H](O)[C@@H]2CC[C@H]2CN2C[C@@]3(CCCc4cc(Cl)ccc43)COc3ccc(cc32)C(=O)NS(=O)(=O)C1` (single isomer, unassigned) [Example 39], on recombinant human Mcl-1, the IC50 came to 10.7 nM.
On to `C[C@H]1CCC[C@H](O)[C@@H]2CC[C@H]2CN2C[C@@]3(CCCc4cc(Cl)ccc43)COc3ccc(cc32)C(=O)NS(=O)(=O)[C@H]1C` [Example 37, (1S,3′R,6′R,7′S,11′S,12′S)-6-Chloro-7′-Hydroxy-11,12′-Dimethyl-3,4-Dihydro-2H,15′H-Spiro[Naphthalene-1,22′-[20]Oxa[13]Thia[1,14]Diazatetracyclo[14.7.2.0^3,6.0^19,24]Pentacos A[16,18,24]Trien]-15′-One 13′,13′-Dioxide], for which the half-inhibitory concentration (IC50) in assay [1] is 667 nM; in the assay with OPM-2 (Homo sapiens, OPM-2, 16 h), 5740 nM.
In turn, `CC[C@@H]1CC/C=C/[C@H](O)[C@@H]2CC[C@H]2CN2C[C@@]3(CCCc4cc(Cl)ccc43)COc3ccc(cc32)C(=O)NS1(=O)=O` (single isomer, unassigned) [Example 17] displayed a 50% inhibitory concentration (IC50) with OPM-2 (Homo sapiens, OPM-2, 16 h) of 260 nM.
With `C[C@@H]1CCC[C@H](O)[C@@H]2CC[C@H]2CN2C[C@@]3(CCCc4cc(Cl)ccc43)COc3ccc(cc32)C(=O)NS(=O)(=O)[C@H]1C` (single isomer, unassigned) [Example 36], the IC50 in assay [1] was found to be 1500 nM; at recombinant human Mcl-1, 44.5 nM.
